This note sets out measurements from patent publication US5516795A, “Heteroatom substituted propanyl derivatives having 5-lipoxygenase inhibitory activity” (Abbott Laboratories, priority 1994, dated 1996).

SMILES strings stand for the structures.

In this test the target is T1, 5-Lipoxygenase (Homo sapiens, UniProt P09917).
T1 construct: Human heparinized whole blood was preincubated with test compounds; endogenous in cells; host or cells: human heparinized whole blood (endogenous enzyme of the blood cells)
T1 sequence (P09917 1-674): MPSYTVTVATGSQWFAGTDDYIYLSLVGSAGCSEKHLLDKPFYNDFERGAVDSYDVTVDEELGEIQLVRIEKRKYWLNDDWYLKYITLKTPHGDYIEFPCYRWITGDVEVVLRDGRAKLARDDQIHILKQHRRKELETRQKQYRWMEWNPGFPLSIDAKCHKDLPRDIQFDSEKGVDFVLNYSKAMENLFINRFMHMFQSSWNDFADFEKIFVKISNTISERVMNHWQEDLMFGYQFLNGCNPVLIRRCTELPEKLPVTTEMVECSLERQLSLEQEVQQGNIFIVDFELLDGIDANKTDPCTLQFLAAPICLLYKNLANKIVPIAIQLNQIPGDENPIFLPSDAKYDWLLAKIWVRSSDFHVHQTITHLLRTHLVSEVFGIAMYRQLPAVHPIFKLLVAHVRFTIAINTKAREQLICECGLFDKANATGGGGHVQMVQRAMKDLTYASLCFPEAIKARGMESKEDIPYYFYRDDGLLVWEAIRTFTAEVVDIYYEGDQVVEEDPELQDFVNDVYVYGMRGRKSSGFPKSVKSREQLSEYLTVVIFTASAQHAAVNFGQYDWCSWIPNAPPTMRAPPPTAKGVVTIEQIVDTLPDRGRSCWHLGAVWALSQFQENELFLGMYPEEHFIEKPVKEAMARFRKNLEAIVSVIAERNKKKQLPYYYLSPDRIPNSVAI
As to the kind of experiment: Inhibition of calcium ionophore A23187-induced LTB4 biosynthesis in human whole blood (5-lipoxygenase inhibition). The test is classed as cell-based. The note with it: A23187 8.3 μM; for inhibition at 0.1 µM: @ 0.10 μM. The method, then:
Lipoxygenase Inhibition Determination
Inhibition of leukotriene biosynthesis was evaluated in an assay, involving calcium ionophore-induced LTB4 biosynthesis expressed human whole blood. Human heparinized whole blood was preincubated with test compounds or vehicle for 15 min at 37° C. followed by calcium ionophore A23187 challenge (final concentration of 8.3 μM) and the reaction terminated after 30 min by adding two volumes of methanol containing prostaglandin B2 as an internal recovery standard. The methanol extract was analyzed for LTB4 using a commercially available radioimmunoassay.
In Vitro Inhibitory Potencies of Compounds
of this Invention Against 5-Lipoxygenase from
Stimulated LTB4 Formation in Human Whole Blood

Setting [1] is: human whole blood, read-out: In vitro inhibition of 5-lipoxygenase / stimulated LTB4 formation (% printed under head "IC50 (10^-6 M)").

Turning to `CO/N=C(\c1cc(F)cc(OCc2ccc(N(C)C(=O)N(C)C)cc2)c1)[C@H]1COC(C)(C)O1` [Example 1, E-(4S)-O-methyl-2,2-dimethyl-4-[(5-fluoro-3-(4-(N',N'-dimethylaminocarbonyl-N-methylamino)benzyloxy)phenyl)oximinomethyl]-1,3-dioxolane], the inhibition at 0.1 µM under setting [1] was determined as 100%.

`CO/N=C(/c1cccc(Sc2ccc(N(C)C(=O)N(C)C)cc2)c1)[C@H]1COC(C)(C)O1` [Example 4, Z-(4S)-O-methyl-2,2-dimethyl-4-[(3-(4-(N',N'-dimethylaminocarbonyl-N-methylamino)phenylthioxyl)phenyl)oximinomethyl]-1,3-dioxolane]: the inhibition at 6.25 µM under setting [1] turned out to be 100%. Turning to `COC[C@@H](OC)[C@@H](OC)c1cc(F)cc(OCc2ccc(N(C)C(=O)N(C)C)cc2)c1` [Example 14, anti-(1S, 2R)-1-[(5-fluoro-3-(4-(N', N'-dimethylaminocarbonyl-N-methylamino)benzyloxy)phenyl)]-1,2,3-trimethoxypropane], the inhibition at 0.1 µM under setting [1] is 49%. Broadly, the IC50 is the concentration needed to halve the response being measured. Consider `C=CCN(C)c1ccc(Sc2cccc(/C(=N\OC)[C@H]3COC(C)(C)O3)c2)cc1` [Example 3 (E oxime), E-(4S)-O-methyl-2,2-dimethyl-4-[(3-(4-(N-allyl-N-methylamino)phenylthioxyl)phenyl)oximinomethyl]-1,3dioxolane], for which the IC50 (stimulated LTB4 formation in human whole blood, read-out: IC50 (10^-6 M)) worked out at 50 nM. Regarding `CO/N=C(\c1cccc(Sc2ccc(N(C)C(=O)N(C)C)cc2)c1)[C@H]1COC(C)(C)O1` [Example 5, E-(4S)-O-methyl-2,2-dimethyl-4-[(3-(4-(N',N': dimethylaminocarbonyl-N-methylamino)phenylthioxyl)phenyl)oximinomethyl]-1,3: dioxolane], where the note is “@ 0.78 μM, human whole blood, read-out: In vitro inhibition of 5-lipoxygenase / stimulated LTB4 formation (% printed under head "IC50 (10^-6 M)")”, the inhibition at 0.78 µM is 100%.

Take `CO/N=C(\c1cc(F)cc(OCc2ccc(N(C)C(C)=O)cc2)c1)[C@H]1COC(C)(C)O1` [Example 2, E-(4S)-O-methyl-2,2-dimethyl-4-[(5-fluoro-3-(4-(N-acetyl-N-methylamino)benzyloxy)phenyl)oximinomethyl]-1,3-dioxolane]: the inhibition at 0.2 µM (@ 0.20 μM, human whole blood, read-out: In vitro inhibition of 5-lipoxygenase / stimulated LTB4 formation (% printed under head "IC50 (10^-6 M)")) turned out to be 82%. On to `C=CCN(C)c1ccc(Sc2cccc(/C(=N/OC)[C@H]3COC(C)(C)O3)c2)cc1` [Example 3 (Z oxime), Z-(4S)-O-Methyl-2,2-dimethyl-4-[(3-(4-(N-allyl-N-methylamino)phenylthioxyl)phenyl)oximinomethyl]-1,3-dioxolane], for which the inhibition at 6.25 µM under setting [1] was found to be 99%.
